Consider twelve molecules from US11339130B1 (Blade Therapeutics, Inc., priority 2016, dated 2022).

Assay [1] has as its target T1, Human Calpain 1/NS1 (Homo sapiens, UniProt P07384).
T1 sequence (P07384 1-714): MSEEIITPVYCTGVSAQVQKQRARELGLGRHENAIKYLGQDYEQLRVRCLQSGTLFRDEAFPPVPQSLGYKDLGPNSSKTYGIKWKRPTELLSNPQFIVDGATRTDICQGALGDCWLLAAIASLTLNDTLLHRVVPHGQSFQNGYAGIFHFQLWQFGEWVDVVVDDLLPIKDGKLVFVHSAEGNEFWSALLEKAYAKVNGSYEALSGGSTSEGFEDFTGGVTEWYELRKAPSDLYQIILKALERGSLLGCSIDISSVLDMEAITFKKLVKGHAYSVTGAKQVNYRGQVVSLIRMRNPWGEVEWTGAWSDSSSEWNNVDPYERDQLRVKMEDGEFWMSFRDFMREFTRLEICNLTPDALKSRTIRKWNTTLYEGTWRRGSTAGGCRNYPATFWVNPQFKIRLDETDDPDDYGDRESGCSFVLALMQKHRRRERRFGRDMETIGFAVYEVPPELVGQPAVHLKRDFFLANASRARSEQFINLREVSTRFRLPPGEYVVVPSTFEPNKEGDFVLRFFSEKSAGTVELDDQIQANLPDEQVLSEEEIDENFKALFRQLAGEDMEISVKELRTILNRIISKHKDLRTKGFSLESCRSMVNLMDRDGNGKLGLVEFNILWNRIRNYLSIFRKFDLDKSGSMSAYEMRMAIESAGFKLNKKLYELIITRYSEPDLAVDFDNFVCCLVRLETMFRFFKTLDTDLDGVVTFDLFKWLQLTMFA
T1 sequence (P04632 1-268 partner): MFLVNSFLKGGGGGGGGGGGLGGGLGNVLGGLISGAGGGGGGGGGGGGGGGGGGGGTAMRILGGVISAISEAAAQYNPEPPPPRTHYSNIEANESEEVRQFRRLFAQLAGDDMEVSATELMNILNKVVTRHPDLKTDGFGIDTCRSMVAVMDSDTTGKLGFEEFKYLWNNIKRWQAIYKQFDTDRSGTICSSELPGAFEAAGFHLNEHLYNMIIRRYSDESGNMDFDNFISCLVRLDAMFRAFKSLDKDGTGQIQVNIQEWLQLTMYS
The assay can be described thus: Calpain inhibition continuous fluorescence (FRET) assay, Human Calpain 1/NS1. The class given is biochemical. Particulars: read-out: Human Calpain 1/NS1 IC50. Summed up: (§1)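 Human calpains 1, 2 and 9 preincubated with inhibitor at 25 °C in 50 mM Tris pH 7.5, 100 mM NaCl, 1 mM DTT; reaction started with 5-FAM/QXL 520 FRET peptide plus CaCl2 for activation. Fluorescence (490/520 nm) followed 10 min; rates from 1-5 min slopes fitted to 4-parameter logistic for IC50.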

Assay [2] deals with T2, Human Calpain 2/NS1 (Homo sapiens, UniProt P17655).
T2 sequence (P17655 1-700): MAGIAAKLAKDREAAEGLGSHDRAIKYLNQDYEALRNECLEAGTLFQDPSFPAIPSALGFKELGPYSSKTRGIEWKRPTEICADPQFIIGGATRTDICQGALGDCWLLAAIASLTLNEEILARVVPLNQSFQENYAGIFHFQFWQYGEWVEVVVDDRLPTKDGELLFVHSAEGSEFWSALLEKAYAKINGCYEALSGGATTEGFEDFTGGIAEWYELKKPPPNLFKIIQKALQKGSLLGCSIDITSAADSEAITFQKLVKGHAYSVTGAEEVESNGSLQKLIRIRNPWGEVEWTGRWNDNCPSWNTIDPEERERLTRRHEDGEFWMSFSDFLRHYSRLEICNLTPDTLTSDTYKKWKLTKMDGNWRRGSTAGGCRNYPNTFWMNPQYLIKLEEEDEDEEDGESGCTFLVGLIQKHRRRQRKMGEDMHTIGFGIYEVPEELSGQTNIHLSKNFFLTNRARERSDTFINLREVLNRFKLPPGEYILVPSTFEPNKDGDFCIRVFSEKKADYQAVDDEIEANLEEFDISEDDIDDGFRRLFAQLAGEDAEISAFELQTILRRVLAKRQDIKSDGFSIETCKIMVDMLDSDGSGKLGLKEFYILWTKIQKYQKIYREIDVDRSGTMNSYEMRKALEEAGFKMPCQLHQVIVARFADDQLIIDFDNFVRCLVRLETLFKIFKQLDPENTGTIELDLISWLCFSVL
T2 sequence (P04632 1-268 partner): T1 sequence (P04632 1-268 partner)
Description: Calpain inhibition continuous fluorescence (FRET) assay, Human Calpain 2/NS1. The class given is biochemical. The conditions noted are these: read-out: Human Calpain 2/NS1 IC50. An outline of the steps: as §1

Assay [3] addresses T3, Human Calpain 9/NS1 (Homo sapiens, UniProt O14815).
T3 sequence (O14815 1-690): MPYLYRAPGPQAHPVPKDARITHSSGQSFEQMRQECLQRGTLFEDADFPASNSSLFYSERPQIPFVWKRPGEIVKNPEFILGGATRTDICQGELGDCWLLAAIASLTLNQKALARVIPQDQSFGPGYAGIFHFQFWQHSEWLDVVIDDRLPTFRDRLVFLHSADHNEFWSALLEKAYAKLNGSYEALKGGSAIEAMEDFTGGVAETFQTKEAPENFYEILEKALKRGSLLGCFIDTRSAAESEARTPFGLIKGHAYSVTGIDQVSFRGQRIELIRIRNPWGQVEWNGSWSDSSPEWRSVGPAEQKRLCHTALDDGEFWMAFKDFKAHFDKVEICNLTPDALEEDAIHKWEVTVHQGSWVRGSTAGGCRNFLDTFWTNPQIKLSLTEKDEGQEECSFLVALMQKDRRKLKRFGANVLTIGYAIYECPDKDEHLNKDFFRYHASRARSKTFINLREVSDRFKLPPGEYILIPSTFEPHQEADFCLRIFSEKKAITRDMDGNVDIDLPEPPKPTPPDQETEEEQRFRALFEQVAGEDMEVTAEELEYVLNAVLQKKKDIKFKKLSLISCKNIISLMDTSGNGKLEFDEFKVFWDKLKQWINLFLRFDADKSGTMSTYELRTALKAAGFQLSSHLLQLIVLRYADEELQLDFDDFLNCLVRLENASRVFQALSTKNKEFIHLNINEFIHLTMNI
T3 sequence (P04632 1-268 partner): T1 sequence (P04632 1-268 partner)
The assay can be described thus: Calpain inhibition continuous fluorescence (FRET) assay, Human Calpain 9/NS1. The class given is biochemical. The conditions noted are these: read-out: Human Calpain 9/NS1 IC50. Summed up:
as §1

In assay [4] the test system is Calpain activity in SH-SY5Y cells (SBDP-150). The assay can be described thus: SH-SY5Y Spectrin western blot assay (SBDP-150 breakdown product, A23187-induced). The class given is cell-based. Particulars: Homo sapiens, SH-SY5Y cells, read-out: SH-SY5Y Spectrin IC50.
Assay [5] relates to Calpain activity in SH-SY5Y cells. Description: SH-SY5Y + AMC fluorescence assay (Suc-LLVY-AMC substrate). The class given is cell-based. Particulars: read-out: SH-SY5Y + AMC IC50.
[6] abbreviates: Column D, A23187-induced SBDP-150.
Setting [7] is: A23187-induced SBDP-150, western blot.

Each structure is given as a SMILES string. Counter-ions that a name gives are not always drawn. Like-named read-outs stand apart in the source and are kept apart here.

For the molecule `Cc1cc(C(=O)N[C@@H](Cc2ccccc2)C(=O)C(N)=O)n(-c2ccc(CNCc3ccccc3)cc2)n1` [Compound 160, (S)—N-(4-amino-3,4-dioxo-1-phenylbutan-2-yl)-1-(4-((benzylamino)methyl)phenyl)-3-methyl-1H-pyrazole-5-carboxamide hydrochloride], the IC50 in assay [1] (Column A) was below 3 µM; in assay [2] (Column B), below 3 µM; in assay [3] (Column C), below 3 µM; in assay [4] (setting [6]), 10 to 25 µM; in assay [5] (Column E), above 25 µM.
Turning to `Cc1noc(-c2ccccc2)c1C(=O)N[C@@H](Cc1c[nH]c2ccccc12)C(=O)C(N)=O` [Compound 57, (S)—N-(4-amino-1-(1H-indol-3-yl)-3,4-dioxobutan-2-yl)-3-methyl-5-phenylisoxazole-4-carboxamide], the IC50 is below 3 µM in assay [1] (Column A); below 3 µM in assay [2] (Column B); below 3 µM in assay [3] (Column C); below 10 µM in assay [4] (setting [6]); 10 to 25 µM in assay [5] (Column E).
In the case of `NC(=O)C(=O)C(Cc1ccccc1)NC(=O)c1nsnc1-c1cccc2c1OCO2` (stereo not drawn) [Compound 367, N-(4-amino-3,4-dioxo-1-phenylbutan-2-yl)-4-(benzo[d][1,3]dioxol-4-yl)-1,2,5-thiadiazole-3-carboxamide], the IC50 is below 3 µM in assay [1]; below 3 µM in assay [2]; below 3 µM in assay [3]; below 10 µM in assay [4] (setting [7]); below 10 µM in assay [5].
For `Cc1cc(C(=O)NC(Cc2ccccc2)C(=O)C(N)=O)n(-c2ccc(CN3CCOCC3)cc2)n1` (stereo not drawn) [Compound 442, N-(4-amino-3,4-dioxo-1-phenylbutan-2-yl)-3-methyl-1-(4-(morpholinomethyl)phenyl)-1H-pyrazole-5-carboxamide], the IC50 in assay [1] was below 3 µM; in assay [2] it was below 3 µM; in assay [3] it was below 3 µM; in assay [4] (setting [7]), 10 to 25 µM; in assay [5], above 25 µM.
For the molecule `Cn1cc(C(=O)N[C@@H](Cc2ccccc2)C(=O)C(=O)NCC(N)=O)c(-c2ccccc2)n1` [Compound 339, (S)—N-(4-((2-amino-2-oxoethyl)amino)-3,4-dioxo-1-phenylbutan-2-yl)-1-methyl-3-phenyl-1H-pyrazole-4-carboxamide], the IC50 in assay [1] was below 3 µM; in assay [2], below 3 µM; in assay [3] it was below 3 µM; in assay [4] (setting [7]), above 25 µM; in assay [5], 10 to 25 µM.
As to `Cc1cc(C(=O)N[C@@H](Cc2ccccc2)C(=O)C(N)=O)n(-c2cccc(CNCc3ccccc3)c2)n1` [Compound 146, (S)—N-(4-amino-3,4-dioxo-1-phenylbutan-2-yl)-1-(3-((benzylamino)methyl)phenyl)-3-methyl-1H-pyrazole-5-carboxamide], the IC50 in assay [1] (Column A) was below 3 µM; in assay [2] (Column B), below 3 µM; in assay [3] (Column C), below 3 µM; in assay [4] (setting [6]), 10 to 25 µM; in assay [5] (Column E), below 10 µM.
`NC(=O)C(=O)C(Cc1ccccc1)NC(=O)c1nsnc1-c1cccc2c1OC(F)(F)O2` (stereo not drawn) [Compound 578, N-(4-amino-3,4-dioxo-1-phenylbutan-2-yl)-4-(2,2-difluorobenzo[d][1,3]dioxol-4-yl)-1,2,5-thiadiazole-3-carboxamide]: the IC50 in assay [1] is below 3 µM; in assay [2] it was below 3 µM; in assay [3], below 3 µM; in assay [4] (setting [7]), below 10 µM; in assay [5], below 10 µM.
Consider `Cc1cc(C(=O)N[C@@H](Cc2ccccc2)C(=O)C(N)=O)n(-c2cccc(COCc3ccccc3)c2)n1` [Compound 230, (S)—N-(4-amino-3,4-dioxo-1-phenylbutan-2-yl)-1-(3-((benzyloxy)methyl)phenyl)-3-methyl-1H-pyrazole-5-carboxamide], for which the IC50 was below 3 µM in assay [1] (Column A); below 3 µM in assay [2] (Column B); below 3 µM in assay [3] (Column C); below 10 µM in assay [4] (setting [6]); below 10 µM in assay [5] (Column E).
With `O=CC(Cc1ccccc1)NC(=O)c1cnoc1-c1ccccc1` (stereo not drawn) [Compound 397, N-(1-oxo-3-phenylpropan-2-yl)-5-phenylisoxazole-4-carboxamide], the IC50 in assay [1] was below 3 µM; in assay [2] it was below 3 µM; in assay [3] it was below 3 µM; in assay [4] (setting [7]), below 10 µM; in assay [5] it was above 25 µM.
For the molecule `NC(=O)C(=O)C(Cc1ccccc1)NC(=O)c1cn(C(F)F)nc1-c1cccc2c1OC(F)(F)O2` (stereo not drawn) [Compound 546, N-(4-amino-3,4-dioxo-1-phenylbutan-2-yl)-3-(2,2-difluorobenzo[d][1,3]dioxol-4-yl)-1-(difluoromethyl)-1H-pyrazole-4-carboxamide], the IC50 is below 3 µM in assay [1]; below 3 µM in assay [2]; below 3 µM in assay [3]; below 10 µM in assay [4] (setting [7]); below 10 µM in assay [5].
For `Cc1cc(C(=O)N[C@@H](Cc2ccccc2)C(=O)C(N)=O)n(-c2ccc(COCc3ccccc3)cc2)n1` [Compound 228, (S)—N-(4-amino-3,4-dioxo-1-phenylbutan-2-yl)-1-(4-((benzyloxy)methyl)phenyl)-3-methyl-1H-pyrazole-5-carboxamide], the IC50 is below 3 µM in assay [1] (Column A); below 3 µM in assay [2] (Column B); below 3 µM in assay [3] (Column C); below 10 µM in assay [4] (setting [6]); above 25 µM in assay [5] (Column E).
Consider `Cn1cc(C(=O)NC(Cc2cc(F)cc(F)c2)C(=O)C(N)=O)c(-c2ccccc2F)n1` (stereo not drawn) [Compound 580, N-(4-amino-1-(3,5-difluorophenyl)-3,4-dioxobutan-2-yl)-3-(2-fluorophenyl)-1-methyl-1H-pyrazole-4-carboxamide], for which the IC50 in assay [1] is below 3 µM; in assay [2], below 3 µM; in assay [3], below 3 µM; in assay [4] (setting [7]), 10 to 25 µM; in assay [5], below 10 µM.
